Here are results for 7 compounds from US6894045B2, “Tetrahydropurinones and derivatives thereof as corticotropin releasing factor receptor ligands” (Bristol-Myers Squibb Pharma Company, priority 2001, dated 2005).

SMILES strings stand for the structures.

The melting point is the temperature, or range, at which the solid turns liquid. In turn, `CCc1nc2c(n1C(CC)CC)C(=O)N(C)CN2c1ccc(Cl)cc1Cl` [Example 1, 3-(2,4-dichlorophenyl)-8-ethyl-1-methyl-7-(3-pentyl)-1,2,3,7-tetrahydro-6H-purin-6-one] returned a melting point of 132 to 133 °C. Compound `CCCC(CCC)n1c(CC)nc2c1C(=O)N(C)CN2c1ccc(Cl)cc1Cl` [Example 2, 3-(2,4-dichlorophenyl)-8-ethyl-7-(4-heptyl)-1-methyl-1,2,3,7-tetrahydro-6H-purin-6-one] registered a melting point of 117 to 118 °C. With `CCc1nc2c(n1C(CC)CC)C(=O)N(C)C(C)N2c1ccc(Cl)cc1Cl` (stereo not shown) [Example 3, 3-(2,4-dichlorophenyl)-1,2-dimethyl-8-ethyl-7-(3-pentyl)-1,2,3,7-tetrahydro-6H-purin-6-one] the figure was 135 to 136.5 °C; with `CCCC(CCC)n1c(CC)nc2c1C(=O)N(C)C(C)N2c1ccc(Cl)cc1Cl` (stereo not shown) [Example 5, 3-(2,4-dichlorophenyl)-1,2-dimethyl-8-ethyl-7-(4-heptyl)-1,2,3,7-tetrahydro-6H-purin-6-one], 144 to 145.5 °C. Take `CCCC(CCC)n1c(CC)nc2c1C(=O)N(C)C(CC)N2c1ccc(Cl)cc1Cl` (stereo not shown) [Example 6, 3-(2,4-dichlorophenyl)-2,8-diethyl-7-(4-heptyl)-1-methyl-1,2,3,7-tetrahydro-6H-purin-6-one]: the melting point was 116.5 to 117.5 °C. The same measure for `CCc1nc2c(n1Cc1ccc(-c3ccccc3)cc1)C(=O)N(C)CN2c1ccc(Cl)cc1Cl` [Example 21, 7-([1,1′-biphenyl]-4-ylmethyl)-3-(2,4-dichlorophenyl)-8-ethyl-1-methyl-1,2,3,7-tetrahydro-6H-purin-6-one]: 216 to 217 °C. `CCCCC(CC)n1c(CC)nc2c1C(=O)N(C)CN2c1ccc(Cl)cc1Cl` (stereo not shown) [Example 49, 3-(2,4-dichlorophenyl)-8-ethyl-7-(3-heptyl)-1-methyl-1,2,3,7-tetrahydro-6H-purin-6-one] gave a melting point of 94 to 95 °C.
